Reference: paper PMC3433255 (Journal of medicinal chemistry, 2012)

Experiments:
[1] = test system: MCF-7 breast cancer cells; experiment: Growth inhibition, 3 h treatment; format: cell-based, human; conditions: MCF-7, 3 h treatment followed by 3 – 4 days of growth; outside the concentration range; average of at least six measurements
[2] = physiological conditions, 37 °C and pH 7; cited from earlier work

| SMILES | IC50 [1] [log M] | half-life of hydrolysis to dox [2] |
| --- | --- | --- |
| COc1cccc2c1C(=O)c1c(O)c3c(c(O)c1C2=O)C[C@@](O)(C(=O)CO)C[C@@H]3O[C@H]1C[C@H](NC(=O)OCc2ccc(NC(=O)[C@H](CCCCN)NC(=O)[C@H](Cc3ccccc3)NC(=O)[C@@H](C)N)cc2)[C@H](O)[C@H](C)O1.O=P(O)(O)O [aFK-Dox, N-(N-(D-alanyl-L-phenylalanyl-L-lysyl)-p-aminobenzyloxycarbonyl)-doxorubicin] | > −6 | – |
| COc1cccc2c1C(=O)c1c(O)c3c(c(O)c1C2=O)C[C@@](O)(C(=O)CO)C[C@@H]3O[C@H]1C[C@@H]2NCO[C@@H]2[C@H](C)O1 [doxaz, doxazolidine] | – | approximately 3 min |
